What all share (assay): inhibition of tumour cell growth, NCI panel, 48 h
Test [1] relates to SF-539.
Test [2] concerns SNB-19.
Test [3] deals with HOP-18.
Test [4] relates to UO-31.
Test [5] has as its system CCRF-CEM.
Test [6] relates to IGROV-1.
The subject of test [7] is 786-0.
For test [8], the system named is OVCAR-4.
Test [9] concerns OVCAR-8.
Test [10] relates to CAKI-1.
Test [11] deals with NCI-H460.
The subject of test [12] is HT-29.
Test [13] deals with EKVX.
Test [14] deals with TK-10.
Test [15] relates to HCT-15.
The subject of test [16] is MOLT-4.
Test [17] concerns DU-145.
Test [18] deals with BT-549.
Test [19] relates to NCI/ADR-RES.
The test system of test [20] is Hs-578T.

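Each compound was tested at five concentrations against cells in 96-well plates for 48 hours. Here, GI50 denotes the concentration required for 50% inhibition of growth.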 The source made the active and inactive calls. Rule as the data show it: active = GI50 up to about 1.1 µM and inactive = higher.

As for `CCCCCCCCCCn1cccc1/C=C/c1ccc(/C=C/c2cccn2CCCCCCCCCC)cc1`, the GI50 in [1] is > 100 µM (inactive); in [2], > 100 µM (inactive); in test [3], > 100 µM (inactive); in test [4], 88.7 µM (inactive); in [5] it was > 100 µM (inactive); in test [6], > 100 µM (inactive). Besides, the GI50 in test [7], in test [8], in test [9], in test [10], in test [11] and in [12] was > 100 µM (inactive) in each case. For the same compound, the GI50 in test [13] and in [14] was > 100 µM (inactive) throughout.
`N#CC1(CCCCl)CCCCC1`: the GI50 was > 100 µM (inactive) in test [1]; > 100 µM (inactive) in test [2]; 72.9 µM (inactive) in test [3]; > 100 µM (inactive) in [4]; > 100 µM (inactive) in test [5]; > 100 µM (inactive) in [6]. For the same compound, the GI50 is above 100 µM in test [15]; > 100 µM (inactive) in test [7]; > 100 µM (inactive) in [9]; > 100 µM (inactive) in [11]; > 100 µM (inactive) in test [12]; > 100 µM (inactive) in test [16]. Moreover, the GI50 in test [13] and in test [14] was > 100 µM (inactive) in each case.
With `O=C(O)c1cc(S(=O)(=O)N/N=C\c2c3ccccc3[n+]([O-])c3ccccc23)ccc1O`, the GI50 in [2] was 31.6 µM (inactive); in test [3], 11.7 µM (inactive); in test [4] it was 17.7 µM (inactive); in [5], 8.57 µM (inactive); in test [6], 22.1 µM (inactive); in test [15], 5.96 µM. In addition, the GI50 in [7] is 11.7 µM (inactive); in test [8], 5.18 µM (inactive); in test [9], 12.7 µM (inactive); in test [10], 45.8 µM (inactive); in test [11] it was 5.96 µM (inactive); in test [12], 19.5 µM (inactive). The results for the GI50 in test [16], in [13] and in test [14] were 3.8 µM (inactive), 44.4 µM (inactive) and 17.8 µM (inactive), respectively.
Consider `N#Cc1c(-c2cccc(Cl)c2)cc(-c2ccc(Cl)cc2)nc1N`, for which the GI50 in [1] was 17.8 µM (inactive); in [2], 11.9 µM (inactive); in [4], 14.2 µM (inactive); in test [5], 18.3 µM (inactive); in test [6], 10.1 µM (inactive); in [15], 17.1 µM. The GI50 in [17] is 32.9 µM (inactive); in test [7] it was 17 µM (inactive); in test [8], 15.7 µM (inactive); in test [9] it was 24.6 µM (inactive); in test [18] it was 18.6 µM (inactive); in [10], 26.1 µM (inactive). The GI50 in test [19] was 22 µM (inactive); in test [11], 18.8 µM (inactive); in [12], 24.3 µM (inactive); in test [16], 19 µM (inactive); in [13], 15.6 µM (inactive); in test [14], 19.7 µM (inactive). Also, the GI50 in [20] was 21.1 µM (inactive).
Turning to `COC12OCCN(C)C1=CC(=O)C1=NNC(C)C12` (stereo not drawn), the GI50 in test [1] is > 100 µM (inactive); in test [3], > 100 µM (inactive); in test [4], > 100 µM (inactive); in [5], > 100 µM (inactive); in test [6] it was > 100 µM (inactive); in [15], above 100 µM. Moreover, the GI50 in test [7], in test [9], in [10], in test [11], in test [12] and in test [16] was > 100 µM (inactive) throughout. Besides, the GI50 in test [13] and in [14] was > 100 µM (inactive) throughout.
For `CO[C@H]1C=C[C@]23c4cc5c(cc4CN(CC2O)[C@@H]3C1)OCO5` (stereo partly drawn), the GI50 in test [1] is 2.59 µM (inactive); in test [2], 2.17 µM (inactive); in test [4], 2.04 µM (inactive); in [5], 0.314 µM (active); in test [6] it was 1.37 µM (inactive); in test [15], 1.91 µM. Also, the GI50 in test [17] was 0.668 µM (active); in test [7], 1.91 µM (inactive); in [8] it was 1.78 µM (inactive); in [9], 3.08 µM (inactive); in test [18] it was 2.36 µM (inactive); in test [10] it was 3.59 µM (inactive). For the same compound, the GI50 in test [19] was 4.98 µM (inactive); in test [11], 1.53 µM (inactive); in test [12], 2.06 µM (inactive); in [16] it was 0.873 µM (active); in test [13], 3.57 µM (inactive); in test [14], 3.18 µM (inactive). Besides, the GI50 in test [20] was 2.97 µM (inactive).
Consider `Clc1ccc(C2=NN=C3C(c4ccccc4)=Nc4ccccc4N3C2)cc1`, for which the GI50 in test [1] was 19.3 µM (inactive); in test [2] it was 11.7 µM (inactive); in [4] it was 3.72 µM (inactive); in test [5], 2.03 µM (inactive); in test [6] it was 7.87 µM (inactive); in test [15], 4.73 µM. Further, the GI50 in [17] was 1.91 µM (inactive); in test [7], 5.28 µM (inactive); in [8], 2.01 µM (inactive); in test [9] it was 4.05 µM (inactive); in test [18], 12.1 µM (inactive); in test [10] it was 7.19 µM (inactive). Besides, the GI50 in [19] is 4.48 µM (inactive); in test [11], 1.38 µM (inactive); in test [12], 3.01 µM (inactive); in test [16], 0.957 µM (active); in test [13], 4.97 µM (inactive); in test [14] it was 3.89 µM (inactive). Also, in test [20], the GI50 is 2.09 µM (inactive).
For `O=C(Nc1cc(Cl)c(Cl)cc1Cl)C(=O)C(C(=O)c1ccccc1)C1OC(=O)c2ccccc21` (stereo not drawn), the GI50 in test [2] is > 100 µM (inactive); in [3], 38.3 µM (inactive); in test [4], > 100 µM (inactive); in test [5], > 100 µM (inactive); in test [6] it was > 100 µM (inactive); in test [15], above 100 µM. In addition, the GI50 in [7], in test [8], in [9], in [10], in test [11] and in test [12] was > 100 µM (inactive) each time. Moreover, the GI50 in [16], in test [13] and in test [14] was > 100 µM (inactive) throughout.
Consider `Cc1[nH]c2ncn(/N=C/c3ccccc3)c(=N)c2c1Cc1ccccc1`, for which the GI50 in [1] was 38.5 µM (inactive); in test [2] it was > 100 µM (inactive); in test [4], > 100 µM (inactive); in [5], > 100 µM (inactive); in [6] it was > 100 µM (inactive); in test [15], above 100 µM. The GI50 in [17], in test [7], in test [8], in [9], in test [18] and in test [10] was > 100 µM (inactive) in each case. The GI50 in [19] is > 100 µM (inactive); in [11], > 100 µM (inactive); in [12] it was > 100 µM (inactive); in test [16], 53 µM (inactive); in test [13], 69.8 µM (inactive); in test [14] it was > 100 µM (inactive). In addition, in [20], the GI50 was > 100 µM (inactive).

These data come from ChEMBL document CHEMBL1201862, “PubChem BioAssay data set” (2004).
